Measured values from patent publication US20240294517A1, “2-[3-[1 [(QUINAZOLIN-4-YL)AMINO]ETHYL]PYRAZIN-2-YL]THIAZOLE-5-CARBONITRILE DERIVATIVES AND SIMILAR COMPOUNDS AS PESTICIDES” (SYNGENTA CROP PROTECTION AG, priority 2021, published 2024).

How the values were obtained:
Assay type in all cases: in vivo
Spodoptera littoralis = experiment: Activity against Spodoptera littoralis (Egyptian cotton leaf worm), sprayed cotton leaf discs; settings: foliar, 72 h, application rate 200 ppm, L1 larvae, 3 days after infestation
Method: Cotton leaf discs were placed onto agar in 24-well microtiter plates and sprayed with aqueous test solutions prepared from 10′000 ppm DMSO stock solutions. After drying the leaf discs were infested with five L1 larvae. The samples were assessed for mortality, anti-feeding effect, and growth inhibition in comparison to untreated samples 3 days after infestation. Control of Spodoptera littoralis by a test sample is given when at least one of the categories mortality, anti-feedant effect, and growth inhibition is higher than the untreated sample.

Plutella xylostella = experiment: Activity against Plutella xylostella (diamond back moth), artificial diet; settings: 192 h, application rate 200 ppm, eggs, 8 days after infestation, read-out: effect in at least one of the two categories (mortality or growth inhibition)
Method: 24-well microtiter plates with artificial diet were treated with aqueous test solutions prepared from 10′000 ppm DMSO stock solutions by pipetting. After drying, Plutella eggs were pipetted through a plastic stencil onto a gel blotting paper and the plate was closed with it. The samples were assessed for mortality and growth inhibition in comparison to untreated samples 8 days after infestation.
(§1) Activity of compound P5 according to the preparatory examples and of compound P.118 from WO 21/083936 against Plutella xylostella ([…]) and Diabrotica balteata (Example B2) is summarized in Table B9.

Diabrotica balteata = experiment: Activity against Diabrotica balteata (corn root worm), sprayed maize sprouts; settings: 96 h, application rate 200 ppm, L2 larvae, 4 days after infestation, read-out: effect in at least one of the two categories (mortality or growth inhibition)
Method: Maize sprouts placed onto an agar layer in 24-well microtiter plates were treated with aqueous test solutions prepared from 10′000 ppm DMSO stock solutions by spraying. After drying, the plates were infested with L2 larvae (6 to 10 per well). The samples were assessed for mortality and growth inhibition in comparison to untreated samples 4 days after infestation.
as §1

Myzus persicae [1] = experiment: Activity against Myzus persicae (green peach aphid), intrinsic activity; settings: 120 h, test rate 12 ppm, 5 days after infestation
Method: Test compounds prepared from 10′000 ppm DMSO stock solutions were applied by pipette into 24-well microtiter plates and mixed with sucrose solution. The plates were closed with a stretched Parafilm. A plastic stencil with 24 holes was placed onto the plate and infested pea seedlings were placed directly on the Parafilm. The infested plate was closed with a gel blotting paper and another plastic stencil and then turned upside down. The samples were assessed for mortality 5 days after infestation.

Chilo suppressalis = experiment: Activity against Chilo suppressalis (striped rice stemborer), artificial diet in 24-well plates; settings: 144 h, application rate 200 ppm, L2 larvae, 6 days after infestation
Method: 24-well microtiter plates with artificial diet were treated with aqueous test solutions prepared from 10′000 ppm DMSO stock solutions by pipetting. After drying, the plates were infested with L2 larvae (6-8 per well). The samples were assessed for mortality, anti-feeding effect, and growth inhibition in comparison to untreated samples 6 days after infestation. Control of Chilo suppressalis by a test sample is given when at least one of the categories mortality, anti-feedant effect, and growth inhibition is higher than the untreated sample.

[2] = tested on: Frankliniella occidentalis; experiment: Activity against Frankliniella occidentalis (western flower thrips), sprayed sunflower leaf discs; settings: foliar, 168 h, application rate 200 ppm, mixed ages, 7 days after infestation
Method: Sunflower leaf discs were placed on agar in 24-well microtiter plates and sprayed with aqueous test solutions prepared from […] stock solutions. After drying the leaf discs were infested with a Frankliniella population of mixed ages. The samples were assessed for mortality 7 days after infestation.

Myzus persicae [3] = experiment: Activity against Myzus persicae (green peach aphid), feeding/contact activity; settings: 144 h, application rate 200 ppm, mixed ages, 6 days after infestation
Method: Sunflower leaf discs were placed onto agar in a 24-well microtiter plate and sprayed with aqueous test solutions prepared from 10′000 ppm DMSO stock solutions. After drying, the leaf discs were infested with an aphid population of mixed ages. The samples were assessed for mortality 6 days after infestation.

C[C@H](Nc1ncnc2c(Cl)cc(C(F)(F)F)cc12)c1ncnn1-c1ncc(C#N)s1 [P15, 2-[5-[(1S)-1-[[8-chloro-6-(trifluoromethyl)quinazolin-4-yl]amino]ethyl]-1,2,4-triazol-1-yl]thiazole-5-carbonitrile]
≥ 80%: percent control (mortality, anti-feedant effect or growth inhibition) at 200 ppm (Spodoptera littoralis) | percent effect (mortality or growth inhibition) at 200 ppm (Plutella xylostella) | percent effect (mortality or growth inhibition) at 200 ppm (Diabrotica balteata) | mortality at 12 ppm (Myzus persicae [1]) | percent control (mortality, anti-feedant effect or growth inhibition) at 200 ppm (Chilo suppressalis)

C[C@H](Nc1ncnc2c(Cl)cc(I)cc12)c1ncnn1-c1ncc(C#N)s1 [P20, 2-[5-[(1S)-1-[(8-chloro-6-iodo-quinazolin-4-yl)amino]ethyl]-1,2,4-triazol-1-yl]thiazole-5-carbonitrile]
≥ 80%: percent control (mortality, anti-feedant effect or growth inhibition) at 200 ppm (Spodoptera littoralis) | percent effect (mortality or growth inhibition) at 200 ppm (Plutella xylostella) | percent effect (mortality or growth inhibition) at 200 ppm (Diabrotica balteata) | percent control (mortality, anti-feedant effect or growth inhibition) at 200 ppm (Chilo suppressalis) | mortality at 200 ppm [2]

C[C@H](Nc1ncnc2c(Br)cc(Br)cc12)c1ncnn1-c1ncc(C#N)s1 [P14, 2-[5-[(1S)-1-[(6,8-dibromoquinazolin-4-yl)amino]ethyl]-1,2,4-triazol-1-yl]thiazole-5-carbonitrile]
≥ 80%: percent control (mortality, anti-feedant effect or growth inhibition) at 200 ppm (Spodoptera littoralis) | percent effect (mortality or growth inhibition) at 200 ppm (Plutella xylostella) | percent effect (mortality or growth inhibition) at 200 ppm (Diabrotica balteata) | mortality at 200 ppm (Myzus persicae [3]) | percent control (mortality, anti-feedant effect or growth inhibition) at 200 ppm (Chilo suppressalis)
